Data from patent US20260234157A1, “COMPOUND AND METHOD FOR TARGETED DEGRADATION OF ANDROGEN RECEPTOR” (Gan & Lee Pharmaceuticals Co., Ltd., priority 2023, published 2026).
Substitutions are numbered along the chain they refer to. Where two headings read alike, the source gives them in different places.

How the values were obtained:
Type in all cases: cell-based
AR protein [1] = target: T1, AR protein (Homo sapiens, UniProt P10275, T878A); assay: Degradation of AR protein in LNCaP cells (Western blot); conditions: for inhibition at 0.01 µM: read-out: Degradation rates of the AR protein in LNCaP cells, 10 nM (%); for inhibition at 0.1 µM: read-out: Degradation rates of the AR protein in LNCaP cells, 100 nM (%)
T1 construct: degradation activity of the compounds disclosed in the present disclosure on AR protein in LNCaP cells; host or cells: LNCaP FGC
T1 sequence (P10275 1-920 T878A): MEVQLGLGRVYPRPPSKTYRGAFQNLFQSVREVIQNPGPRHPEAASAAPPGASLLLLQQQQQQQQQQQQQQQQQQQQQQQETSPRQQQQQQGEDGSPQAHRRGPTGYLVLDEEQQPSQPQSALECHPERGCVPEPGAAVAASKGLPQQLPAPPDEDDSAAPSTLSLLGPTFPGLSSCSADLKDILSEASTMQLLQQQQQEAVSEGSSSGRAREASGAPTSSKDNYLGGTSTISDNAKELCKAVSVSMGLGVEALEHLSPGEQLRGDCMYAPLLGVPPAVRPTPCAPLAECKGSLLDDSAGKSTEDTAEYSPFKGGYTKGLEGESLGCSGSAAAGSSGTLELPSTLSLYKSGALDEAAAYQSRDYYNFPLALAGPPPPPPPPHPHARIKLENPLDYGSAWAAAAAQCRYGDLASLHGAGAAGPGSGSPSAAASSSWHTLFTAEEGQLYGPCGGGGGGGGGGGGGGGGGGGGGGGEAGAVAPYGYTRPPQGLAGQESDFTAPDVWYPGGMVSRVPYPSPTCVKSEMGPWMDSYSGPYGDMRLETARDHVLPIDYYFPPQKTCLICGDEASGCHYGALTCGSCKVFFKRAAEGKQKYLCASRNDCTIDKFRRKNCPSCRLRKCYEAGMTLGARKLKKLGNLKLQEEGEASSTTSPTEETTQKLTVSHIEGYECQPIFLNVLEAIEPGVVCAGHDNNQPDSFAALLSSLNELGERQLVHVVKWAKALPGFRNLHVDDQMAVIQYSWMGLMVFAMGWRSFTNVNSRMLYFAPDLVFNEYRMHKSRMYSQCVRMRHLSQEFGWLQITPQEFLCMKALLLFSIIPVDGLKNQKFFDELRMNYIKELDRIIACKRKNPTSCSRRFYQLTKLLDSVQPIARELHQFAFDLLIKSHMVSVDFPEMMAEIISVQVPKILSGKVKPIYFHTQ
In short: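 Percent AR degradation was derived from GAPDH-normalised Western blot band intensities (infrared detection) in LNCaP lysates.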

AR protein [2] = target: T2, AR protein (Homo sapiens, UniProt P10275); assay: Degradation of AR protein in VCaP cells (Western blot); conditions: 8 hours; for inhibition at 0.01 µM: compound at 10 nM, read-out: Degradation rate of the AR protein in VCaP cells, 10 nM (%); for inhibition at 0.1 µM: compound at 100 nM, read-out: Degradation rate of the AR protein in VCaP cells, 100 nM (%)
T2 construct: degradation activity of the compounds disclosed in the present disclosure on AR protein in VCaP cells; host or cells: VCaP
T2 sequence (P10275 1-920): T1 sequence (P10275 1-920 T878A) with A878T
In short: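 Western blot readout: AR band grayscale normalised to GAPDH, used to derive degradation rate. Lysates came from VCaP cells exposed to compound for 8 h, with solvent controls run in parallel.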

LNCaP FGC cells = assay: Inhibition of proliferation of LNCaP cells (WST-8); conditions: Homo sapiens, LNCaP, 96 h
Description: The cells were cultured in a cell culture incubator with 5% CO2 at 37° C. overnight. […] On the sixth day, 96 well plates were taken out, and 20 μL of WST-8 (Beytime, C0040) reagent was added to each well.

VCaP cells = assay: Inhibition of proliferation of VCaP cells (WST-8); conditions: Homo sapiens, read-out: IC50 for inhibiting the proliferation of VCaP cells
In short: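 Proliferation was read by WST-8 on day nine. Cells were VCaP FGC, seeded at 15000 cells per well in 10% FBS DMEM and kept at 37° C with 5% CO2.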

[3] = read-out: IC50 for inhibiting the proliferation of LNCaP cells, LNCaP FGC cells, 96 hours, WST-8 absorbance at 450 nm
[4] = LNCaP cells, compound 10 nM, 8 hours, Western blot grayscale, GAPDH internal reference
[5] = LNCaP cells, compound 100 nM, 8 hours, Western blot grayscale, GAPDH internal reference
[6] = LNCaP FGC cells, 96 hours, WST-8 absorbance at 450 nm, read-out: IC50 for inhibiting the proliferation of LNCaP cells
[7] = VCaP cells, 168 hours, WST-8 absorbance at 450 nm

Compound	inhibition at 0.01 µM (AR protein [2])	inhibition at 0.1 µM (AR protein [2])	inhibition at 0.01 µM (AR protein [1]; [4])	inhibition at 0.1 µM (AR protein [1]; [5])	IC50 (LNCaP FGC cells; [6])	IC50 (VCaP cells; [7])	inhibition at 0.01 µM (AR protein [1]; LNCaP, 8 h)	inhibition at 0.1 µM (AR protein [1]; LNCaP, 8 h)	IC50 (LNCaP FGC cells; [3])	IC50 (VCaP cells; VCaP, 168 h)
N#Cc1ccc(O[C@H]2CC[C@H](NC(=O)c3ccc(N4CCC(N5CCC(N6CCC7(CC6)COc6c7ccc7c6CN(C6CCC(=O)NC6=O)C7=O)CC5)CC4)nn3)CC2)cc1Cl (stereo partly drawn) [Compound 173]	75%	86%					75%	72%	12300 nM	1 nM
N#Cc1ccc(O[C@H]2CC[C@H](NC(=O)c3ccc(N4CCC(N5CCC6(CC5)COc5cc7c(cc56)C(=O)N(C5CCC(=O)NC5=O)C7=O)CC4)nn3)CC2)cc1Cl (stereo partly drawn) [Compound 48]	69%	82%					73%	91%	1670 nM	180 nM
C[C@H]1CN(c2ccc(C(=O)N[C@H]3CC[C@H](Oc4ccc(C#N)c(Cl)c4)CC3)nn2)C[C@@H]1CN1CCC2(CC1)COc1c2ccc2c1CN(C1CCC(=O)NC1=O)C2=O (stereo partly drawn) [Compound 212]	60%	82%	79%	70%	320 nM	1 nM				
N#Cc1ccc(O[C@H]2CC[C@H](NC(=O)c3ccc(N4CCC(CN5CCC6(CC5)COc5cc7c(cc56)C(=O)N(C5CCC(=O)NC5=O)C7=O)CC4)nn3)CC2)cc1Cl (stereo partly drawn) [Compound 56]	79%	88%	44%	77%	350 nM	60 nM				
COc1cc(O[C@H]2C(C)(C)[C@H](NC(=O)c3ccc(N4CCC(C)(CN5CCC6(CC5)COc5cc7c(cc56)C(=O)N(C5CCC(=O)NC5=O)C7=O)CC4)cc3)C2(C)C)ccc1C#N (stereo partly drawn) [Compound 288]	7%	41%	-18%	18%	65900 nM	74 nM				
N#Cc1ccc(O[C@H]2CC[C@H](NC(=O)c3ccc(N4CCC(O)(CN5CCC6(CC5)COc5c6ccc6c5C(=O)N(C5CCC(=O)NC5=O)C6=O)CC4)nn3)CC2)cc1Cl (stereo partly drawn) [Compound 213]	32%	75%	47%	67%	1320 nM	19 nM				
CC1(C)[C@H](NC(=O)c2ccc(N3CCC(F)(CN4CCC5(CC4)COc4c5ccc5c4CN(C4CCC(=O)NC4=O)C5=O)CC3)nn2)C(C)(C)[C@H]1Oc1ccc(C#N)c(C(F)(F)F)c1 (stereo partly drawn) [Compound 237]	-46%	23%	6%	39%	51 nM	4.5 nM				

Continued, in another order:

inhibition at 0.01 µM (AR protein [2])	inhibition at 0.1 µM (AR protein [2])	inhibition at 0.01 µM (AR protein [1]; [4])	inhibition at 0.1 µM (AR protein [1]; [5])	IC50 (LNCaP FGC cells; [6])	IC50 (VCaP cells; [7])	Compound	inhibition at 0.01 µM (AR protein [1]; LNCaP, 8 h)	inhibition at 0.1 µM (AR protein [1]; LNCaP, 8 h)	IC50 (LNCaP FGC cells; [3])	IC50 (VCaP cells; VCaP, 168 h)
39%	67%	49%	25%	1760 nM	2 nM	COc1cc(O[C@H]2CC[C@H](NC(=O)c3ccc(N4CCC(F)(CN5CC6(CCc7cc8c(cc7O6)CN(C6CCC(=O)NC6=O)C8=O)C5)CC4)nn3)CC2)ccc1C#N (stereo partly drawn) [Compound 209]				
18%	35%	38%	36%	8660 nM	4010 nM	COC1(CN2CCC3(CC2)COc2ccc4c(c2C3)C(=O)N(C2CCC(=O)NC2=O)C4)CCN(c2ccc(C(=O)N[C@H]3CC[C@H](Oc4ccc(C#N)c(Cl)c4)CC3)nn2)CC1 (stereo partly drawn) [Compound 148]				
-30%	-16%	-3%	34%	60000 nM	9200 nM	COc1cc(O[C@H]2C(C)(C)[C@H](NC(=O)c3ccc(N4CCC(CN5CC6(CCc7ccc8c(c7O6)C(=O)N(C6CCC(=O)NC6=O)C8=O)C5)CC4)cc3)C2(C)C)ccc1C#N (stereo partly drawn) [Compound 278]				
7%	54%	16%	60%	10700 nM	73 nM	COc1cc(O[C@H]2C(C)(C)[C@H](NC(=O)c3ccc(N4CCC(CN5CC6(CCc7cc8c(cc7O6)C(=O)N(C6CCC(=O)NC6=O)C8=O)C5)CC4)cc3)C2(C)C)ccc1C#N (stereo partly drawn) [Compound 277]				
4%	8%	25%	4%	90500 nM	11800 nM	N#Cc1ccc(O[C@H]2CC[C@H](NC(=O)c3ccc(N4CCC(F)(CN5CC6(CCc7ccc8c(c7O6)C(=O)N(C6CCC(=O)NC6=O)C8=O)C5)CC4)nn3)CC2)cc1Cl (stereo partly drawn) [Compound 164]				
7%	63%	35%	61%	11800 nM	270 nM	COc1cc(O[C@H]2C(C)(C)[C@H](NC(=O)c3ccc(N4CCC(F)(CN5CC6(CCc7cc8c(cc7O6)C(=O)N(C6CCC(=O)NC6=O)C8=O)C5)CC4)cc3)C2(C)C)ccc1C#N (stereo partly drawn) [Compound 269]				
-21%	15%	27%	63%	66000 nM	82 nM	COc1cc(O[C@H]2C(C)(C)[C@H](NC(=O)c3ccc(N4CCC(C)(CN5CCC6(CC5)COc5cc7c(cc5C6)C(=O)N(C5CCC(=O)NC5=O)C7=O)CC4)cc3)C2(C)C)ccc1C#N (stereo partly drawn) [Compound 289]				
11%	54%	65%	69%	13500 nM	22 nM	N#Cc1ccc(O[C@H]2CC[C@H](NC(=O)c3ccc(C#Cc4ccc(N5CCC6(CC5)COc5c6ccc6c5CN(C5CCC(=O)NC5=O)C6=O)nc4)nn3)CC2)cc1Cl (stereo partly drawn) [Compound 239]				
